According to PMC10675077, “Antimicrobial Properties of New Polyamines Conjugated with Oxygen-Containing Aromatic Functional Groups” (Molecules, 2023):

What was measured:
S. aureus = assay: Checkerboard titration synergy, S. aureus; type: cell-based, Staphylococcus aureus; settings: synergistic when FICI ≤0.5
Procedure: The combined antimicrobial activity of the test compounds with the antibacterial or antifungal control agents was performed under the same conditions used for the MIC determination and following the procedures described by Carton Herrán, Reis de Sá et al. and Zharkova et al.. For each experiment, 16 samples (4 rows × 4 columns) in a total volume of 0.5 mL were prepared in tubes using an array of combinations between the MIC value and 0 μg/mL of the compound to be tested in each row, and between the MIC value and 0 μg/mL of the reference drug in each column. In this way, a variety of mixtures with different concentrations of them alone or in combination was obtained. Briefly, 0.5 mL of a microorganism culture was added to each one of the samples, and after incubation for 24 h with shaking at the appropriate temperature (37 °C or 30 °C), the tubs were visually inspected, and the OD600 was measured. From this information, the fractional inhibitory concentration index (FICI) was calculated according to the formula FIC index = ([A]/[CMI A]) + ([B]/[CMI B]), where [A] and [B] are respective concentrations of tested polyamine and reference drug in their combination effectively inhibiting the growth of bacteria or yeast, and [MIC A] and [MIC B] are the individual MICs of the tested polyamine and reference drug when they are used alone. An interaction is considered synergistic when the FICI value is ≤0.5 [41, 42].
To confirm the data obtained in the checkerboard assay, 30 μL of a ten-fold dilution of the tubes containing concentrations of half of the MIC of each one of the compounds alone (polyamine to be tested and reference drug) and one fourth of the MIC of each one in combination were also spread in LB or SC-ura plates (according to the microorganism considered in each case) and incubated at 37 °C or 30 °C. The visualisation of these plates was performed after 24 or 48 h, respectively. All these experiments were carried out in triplicate.

human Jurkat cell line = assay: Cytotoxicity, flow cytometry viability assay with propidium iodide; type: cell-based; settings: 24 h treatment, average of three experiments
In short: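 Jurkat cells in RPMI 1640 with 5% FCS exposed to a concentration range of compound or PBS for 24 h. Dead cells scored as PI-positive events (3.75 μM PI, 5 min, room temperature) by flow cytometry, 10,000 events per sample. IC50 obtained by curve fitting; triplicates.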

| Compound | Synergy with Ampicillin (S. aureus) | Synergy with Ciprofloxacin (S. aureus) | Synergy with Doxycycline (S. aureus) | Synergy with Gentamicin (S. aureus) | IC50, cytotoxicity on the human Jurkat cell line (human Jurkat cell line) [µg/mL] |
| --- | --- | --- | --- | --- | --- |
| Oc1ccccc1CNCCN1CCNCc2cccc(n2)CNCC1 [Compound 6a] | no synergy and - | no synergy and - | no synergy and - | no synergy and - | – |
| N^1-(benzo[d][1,3]dioxol-5-ylmethyl)-N^3-(2-((2-((3-((benzo[d][1,3]dioxol-5-ylmethyl)amino)propyl)amino)ethyl)(2-((3-(((2,3-dihydrobenzofuran-6-yl)methyl)amino)propyl)amino)ethyl)amino)ethyl)propane-1,3-diamine [Compound 4a] | – | – | – | – | 76.86 |
